Measurements taken from paper PMC12736255, “Reinvestigating Pyrrol-2-One-Based Compounds: From Antimicrobial Agents to Promising Antitumor Candidates” (Pharmaceuticals, 2025).

Columns and labels:
Experiment in all cases: NCI-60 single-dose screen
Format in all cases: cell-based
[1] = test system: OVCAR-3; details: Homo sapiens; OVCAR-3, 10^–5 M; read-out: GI (%)
Source text: (§1) In the next step, all synthesized compounds were electronically submitted and accepted for testing to the National Cancer Institute (NCI) platform, for the single dose (10^−5 M) screening against a panel of 60 human tumor cell lines, representing leukemia, melanoma, and cancers of the lung, colon, central nervous system, ovary, kidney, prostate, and breast. The results are summarized in Table 2, with the best values highlighted in red (Figures S1–S14).

[2] = test system: MOLT-4; details: Homo sapiens; MOLT-4, 10^–5 M; read-out: GI (%)
Source text: as §1

[3] = test system: PC-3; details: Homo sapiens, PC-3, PC-3, 10^–5 M; read-out: GI (%)
Source text: as §1

[4] = test system: SK-OV-3; details: Homo sapiens; SK-OV-3, 10^–5 M; read-out: GI (%)
Source text: as §1

[5] = test system: NCI/ADR-RES; details: Homo sapiens, 10^–5 M, read-out: GI (%)
Source text: as §1

[6] = test system: LOX IMVI; details: Homo sapiens, 10^–5 M, read-out: GI (%)
Source text: as §1

[7] = test system: CCRF-CEM; details: Homo sapiens, 10^–5 M, read-out: GI (%)
Source text: as §1

[8] = test system: SF-268; details: Homo sapiens; SF-268, 10^–5 M; read-out: GI (%)
Source text: as §1

[9] = test system: SK-MEL-28; details: Homo sapiens; SK-MEL-28, 10^–5 M; read-out: GI (%)
Source text: as §1

[10] = test system: ACHN; details: Homo sapiens, 10^–5 M, read-out: GI (%)
Source text: as §1

[11] = test system: CAKI-1; details: Homo sapiens; CAKI-1, 10^–5 M; read-out: GI (%)
Source text: as §1

[12] = test system: MDA-MB-231/ATCC; details: Homo sapiens, 10^–5 M, read-out: GI (%)
Source text: as §1

[13] = test system: NCI-H23; details: Homo sapiens; NCI-H23, 10^–5 M; read-out: GI (%)
Source text: as §1

[14] = test system: UACC-257; details: Homo sapiens; UACC-257, 10^–5 M; read-out: GI (%)
Source text: as §1

[15] = test system: COLO205; details: Homo sapiens, COLO 205; COLO205, 10^–5 M; read-out: GI (%)
Source text: as §1

[16] = test system: HCT-15; details: Homo sapiens; HCT-15, 10^–5 M; read-out: GI (%)
Source text: as §1

[17] = test system: MCF7; details: Homo sapiens; MCF7, 10^–5 M; read-out: GI (%)
Source text: as §1

[18] = test system: 786-0; details: Homo sapiens; 786-0, 10^–5 M; read-out: GI (%)
Source text: as §1

[19] = test system: SF-539; details: Homo sapiens; SF-539, 10^–5 M; read-out: GI (%)
Source text: as §1

[20] = test system: RPMI-8226; details: Homo sapiens; RPMI-8226, 10^–5 M; read-out: GI (%)
Source text: as §1

[21] = test system: M14; details: Homo sapiens; M14, 10^–5 M; read-out: GI (%)
Source text: as §1

[22] = test system: A498; details: Homo sapiens; A498, 10^–5 M; read-out: GI (%)
Source text: as §1

[23] = test system: HCT-116; details: Homo sapiens; HCT-116, 10^–5 M; read-out: GI (%)
Source text: as §1

[24] = test system: KM12; details: Homo sapiens; KM12, 10^–5 M; read-out: GI (%)
Source text: as §1

[25] = test system: HT-29; details: Homo sapiens; HT-29, 10^–5 M; read-out: GI (%)
Source text: as §1

[26] = test system: MALME-3M; details: Homo sapiens, 10^–5 M, read-out: GI (%)
Source text: as §1

[27] = test system: HS 578T; details: Homo sapiens, 10^–5 M, read-out: GI (%)
Source text: as §1

[28] = test system: SNB-75; details: Homo sapiens; SNB-75, 10^–5 M; read-out: GI (%)
Source text: as §1

[29] = test system: OVCAR-4; details: Homo sapiens; OVCAR-4, 10^–5 M; read-out: GI (%)
Source text: as §1

[30] = test system: NCI-H522; details: Homo sapiens; NCI-H522, 10^–5 M; read-out: GI (%)
Source text: as §1

[31] = test system: DU-145; details: Homo sapiens; DU-145, 10^–5 M; read-out: GI (%)
Source text: as §1

[32] = test system: SNB-19; details: Homo sapiens; SNB-19, 10^–5 M; read-out: GI (%)
Source text: as §1

[33] = test system: SN12C; details: Homo sapiens, 10^–5 M, read-out: GI (%)
Source text: as §1

[34] = test system: SK-MEL-5; details: Homo sapiens; SK-MEL-5, 10^–5 M; read-out: GI (%)
Source text: as §1

[35] = test system: SK-MEL-2; details: Homo sapiens; SK-MEL-2, 10^–5 M; read-out: GI (%)
Source text: as §1

[36] = test system: A549/ATCC; details: Homo sapiens, 10^–5 M, read-out: GI (%)
Source text: as §1

[37] = test system: MDA-MB-435; details: Homo sapiens; MDA-MB-435, 10^–5 M; read-out: GI (%)
Source text: as §1

[38] = test system: OVCAR-5; details: Homo sapiens; OVCAR-5, 10^–5 M; read-out: GI (%)
Source text: as §1

Row | Compound | inhibition at 10 µM [1] [%] | inhibition at 10 µM [2] [%] | inhibition at 10 µM [3] [%] | inhibition at 10 µM [4] [%] | inhibition at 10 µM [5] [%] | inhibition at 10 µM [6] [%] | inhibition at 10 µM [7] [%] | inhibition at 10 µM [8] [%] | inhibition at 10 µM [9] [%] | inhibition at 10 µM [10] [%] | inhibition at 10 µM [11] [%] | inhibition at 10 µM [12] [%] | inhibition at 10 µM [13] [%] | inhibition at 10 µM [14] [%] | inhibition at 10 µM [15] [%] | inhibition at 10 µM [16] [%] | inhibition at 10 µM [17] [%] | inhibition at 10 µM [18] [%] | inhibition at 10 µM [19] [%] | inhibition at 10 µM [20] [%] | other results
1 | COc1ccc(C2C=C(Nc3ccc(I)cc3)C(=O)N2c2ccc(I)cc2)cc1OC (centres unmarked) [3j] | 0 | 0 | 0 | 0 | 0 | 8 | 0 | 3 | 0 | 0 | 5 | 0 | 8 | 0 | 9 | 0 | 6 | 0 | 28 | 7 | inhibition at 10 µM [21]: 0%; inhibition at 10 µM [22]: 0%; inhibition at 10 µM [23]: 0%; inhibition at 10 µM [24]: 0%; inhibition at 10 µM [25]: 0%; inhibition at 10 µM [26]: 0%; inhibition at 10 µM [27]: 0%; inhibition at 10 µM [28]: 0%; inhibition at 10 µM [29]: 0%; inhibition at 10 µM [30]: 0%; inhibition at 10 µM [31]: 0%; inhibition at 10 µM [32]: 0%; inhibition at 10 µM [33]: 0%; inhibition at 10 µM [34]: 11%; inhibition at 10 µM [35]: 0%; inhibition at 10 µM [36]: 5%; inhibition at 10 µM [37]: 0%; inhibition at 10 µM [38]: 0%
2 | O=C1C(Nc2ccc(I)cc2)=CC(c2ccc(F)cc2)N1c1ccc(I)cc1 (centres unmarked) [3b] | 9 | 66 | 0 | 12 | 9 | 0 | 74 | 68 | 8 | 35 | 13 | 6 | 8 | 8 | 27 | 9 | 56 | 27 | 51 | 35 | inhibition at 10 µM [21]: 4%; inhibition at 10 µM [22]: 21%; inhibition at 10 µM [23]: 21%; inhibition at 10 µM [24]: 26%; inhibition at 10 µM [25]: 16%; inhibition at 10 µM [26]: 6%; inhibition at 10 µM [27]: 90%; inhibition at 10 µM [28]: 100%; inhibition at 10 µM [29]: 38%; inhibition at 10 µM [30]: 26%; inhibition at 10 µM [31]: 9%; inhibition at 10 µM [32]: 8%; inhibition at 10 µM [33]: 28%; inhibition at 10 µM [34]: 5%; inhibition at 10 µM [35]: 31%; inhibition at 10 µM [36]: 13%; inhibition at 10 µM [37]: 0%; inhibition at 10 µM [38]: 0%
3 | O=C1C(Nc2ccc(I)cc2)=CC(c2ccc(O)c(O)c2)N1c1ccc(I)cc1 (centres unmarked) [3h] | 96 | 100 | > 70 | 64 | 35 | 57 | 100 | 82 | 75 | 61 | 44 | 42 | 73 | 68 | 98 | 84 | 91 | 52 | 72 | 100 | inhibition at 10 µM [21]: 99%; inhibition at 10 µM [22]: 61%; inhibition at 10 µM [23]: 96%; inhibition at 10 µM [24]: 100%; inhibition at 10 µM [25]: 96%; inhibition at 10 µM [26]: 100%; inhibition at 10 µM [27]: 63%; inhibition at 10 µM [28]: 86%; inhibition at 10 µM [29]: 100%; inhibition at 10 µM [30]: 82%; inhibition at 10 µM [31]: 40%; inhibition at 10 µM [32]: 69%; inhibition at 10 µM [33]: 100%; inhibition at 10 µM [34]: 94%; inhibition at 10 µM [35]: 100%; inhibition at 10 µM [36]: 73%; inhibition at 10 µM [37]: 73%; inhibition at 10 µM [38]: 22%
4 | O=C1C(Nc2ccc(I)cc2)=CC(c2ccc(Cl)cc2)N1c1ccc(I)cc1 (centres unmarked) [3c] | 9 | 29 | 1 | 13 | 1 | 11 | 15 | 24 | 12 | 21 | 19 | 5 | 13 | 23 | 0 | 13 | 47 | 18 | 11 | 30 | inhibition at 10 µM [21]: 0%; inhibition at 10 µM [22]: 19%; inhibition at 10 µM [23]: 25%; inhibition at 10 µM [24]: 17%; inhibition at 10 µM [25]: 19%; inhibition at 10 µM [26]: 17%; inhibition at 10 µM [27]: 55%; inhibition at 10 µM [28]: 12%; inhibition at 10 µM [29]: 34%; inhibition at 10 µM [30]: 24%; inhibition at 10 µM [31]: 10%; inhibition at 10 µM [32]: 7%; inhibition at 10 µM [33]: 25%; inhibition at 10 µM [34]: 18%; inhibition at 10 µM [35]: 43%; inhibition at 10 µM [36]: 4%; inhibition at 10 µM [37]: 0%; inhibition at 10 µM [38]: 0%
